Assay results from patent US20020035061A1, “COMPOSITIONS AND METHODS FOR TREATING INFECTIONS USING CATIONIC PEPTIDES ALONE OR IN COMBINATION WITH ANTIBIOTICS” (priority 1996, published 2002).

Tests used:
[1] = test system: bacterial isolates; experiment: microbe, parasite or virus in culture; format: cell-based
[2] = test system: microorganisms with acquired resistance; experiment: microbe, parasite or virus in culture; format: cell-based; details: for Peptide MIC: combination with Mupirocin, in µg/mL
[3] = A. baumannii ABI001, Tobramycin section
[4] = P. aeruginosa 22, Piperacillin section
[5] = P. aeruginosa 23, Piperacillin section
[6] = P. aeruginosa PA032, Tobramycin section
[7] = S. maltophilia SMA029, Tobramycin section
[8] = peptide + Piperacillin, P. aeruginosa 22
[9] = peptide + Piperacillin, P. aeruginosa 23
[10] = peptide + Tobramycin, A. baumannii ABI001
[11] = peptide + Tobramycin, P. aeruginosa PA032
[12] = peptide + Tobramycin, S. maltophilia SMA029
[13] = S. maltophilia SMA030, Tobramycin section
[14] = peptide + Tobramycin, S. maltophilia SMA030
[15] = S. aureus SA014 (also SA014 MRSA)
[16] = S. aureus SA025 (also SA025 MRSA)

ILKKWPWWPWRRK [MBI 11CN]
0.25 µg/mL: Peptide MIC + Tobramycin ([1]; E. coli ECO006) | Peptide MIC + Tobramycin ([2]; E. coli EC0006)
0.53: FIC [1, 9] | FIC ([1]; peptide + Tobramycin, E. coli ECO006) | FIC [2, 9] | FIC ([2]; peptide + Tobramycin, E. coli EC0006)
>128 µg/mL: Peptide MIC Alone [1, 6] | Peptide MIC Alone [1, 7] | Peptide MIC Alone [2, 6] | Peptide MIC Alone [2, 7] | Peptide MIC Alone [2, 13]
8 µg/mL: Peptide MIC Alone ([1]; E. coli ECO006, Tobramycin section) | Tobramycin MIC + Peptide ([1]; P. aeruginosa PA032) | Peptide MIC Alone ([1]; S. aureus 19 MRSA, Piperacillin section) | Peptide MIC Alone ([2]; E. coli EC0006, Tobramycin section)
2 µg/mL: Peptide MIC + Tobramycin ([1]; S. maltophilia SMA029) | Tobramycin MIC + Peptide ([2]; S. maltophilia SMA029) | Tobramycin MIC + Peptide ([2]; S. maltophilia SMA030)
1 µg/mL: Peptide MIC + Piperacillin ([1]; S. aureus 19 MRSA)
16 µg/mL: Peptide MIC + Tobramycin ([1]; A. baumannii ABI001) | Peptide MIC + Piperacillin ([1]; S. aureus 18 MRSA) | Peptide MIC + Tobramycin ([2]; A. baumannii ABI001) | Piperacillin MIC + Peptide ([2]; A. calcoaceticus 3) | Piperacillin MIC + Peptide ([2]; S. maltophilia 2)
0.50: FIC ([1]; peptide + Piperacillin, S. aureus 18 MRSA) | FIC [1, 10] | FIC [2, 10] | FIC [2, 11]
16: Peptide MIC ([2]; S. aureus)
0.75: FIC ([2]; peptide + Piperacillin, S. maltophilia 2)
8: Peptide MIC ([2]; E. faecium)
32 µg/mL: Peptide MIC + Piperacillin ([1]; P. aeruginosa 22) | Peptide MIC Alone ([1]; S. aureus 18 MRSA, Piperacillin section) | Peptide MIC + Tobramycin ([1]; S. maltophilia SMA035) | Peptide MIC + Piperacillin ([2]; A. calcoaceticus 3) | Peptide MIC + Piperacillin ([2]; P. aeruginosa 22) | Peptide MIC + Piperacillin ([2]; S. maltophilia 2)
0.5 µg/mL: Piperacillin MIC + Peptide ([1]; S. aureus 18 MRSA)
0.52: FIC [1, 8] | FIC [1, 11] | FIC [2, 8]
4 µg/mL: Tobramycin MIC + Peptide ([1]; A. baumannii ABI001) | Tobramycin MIC + Peptide ([1]; E. coli ECO006) | Piperacillin MIC + Peptide ([1]; P. aeruginosa 22) | Peptide MIC + Piperacillin ([1]; P. aeruginosa 23) | Peptide MIC + Tobramycin ([1]; P. aeruginosa PA032) | Tobramycin MIC + Peptide ([1]; S. maltophilia SMA035) | Tobramycin MIC + Peptide ([2]; A. baumannii ABI001) | Tobramycin MIC + Peptide ([2]; E. coli EC0006) | Piperacillin MIC + Peptide ([2]; P. aeruginosa 22) | Peptide MIC + Piperacillin ([2]; P. aeruginosa 23) | Tobramycin MIC + Peptide ([2]; P. aeruginosa PA032)
0.27: FIC [2, 12] | FIC [2, 14]
0.51: FIC [1, 12]
1.00: FIC ([2]; peptide + Piperacillin, A. calcoaceticus 3)
64 µg/mL: Peptide MIC Alone [1, 3] | Peptide MIC Alone [1, 4] | Piperacillin MIC + Peptide ([1]; P. aeruginosa 23) | Piperacillin MIC + Peptide ([1]; S. aureus 19 MRSA) | Tobramycin MIC + Peptide ([1]; S. maltophilia SMA029) | Peptide MIC Alone [2, 3] | Peptide MIC Alone ([2]; A. calcoaceticus 3, Piperacillin section) | Peptide MIC Alone [2, 4] | Piperacillin MIC + Peptide ([2]; P. aeruginosa 23) | Peptide MIC + Tobramycin ([2]; P. aeruginosa PA032) | Peptide MIC Alone ([2]; S. maltophilia 2, Piperacillin section) | Peptide MIC + Tobramycin ([2]; S. maltophilia SMA029) | Peptide MIC + Tobramycin ([2]; S. maltophilia SMA030)
0.38: FIC ([1]; peptide + Piperacillin, S. aureus 19 MRSA) | FIC ([1]; peptide + Tobramycin, S. maltophilia SMA035)
128 µg/mL: Peptide MIC Alone [1, 5] | Peptide MIC Alone ([1]; S. maltophilia SMA035, Tobramycin section) | Peptide MIC Alone [2, 5]

ILKKFPFFPFRRK [MBI 11A1CN]
0.05: FIC ([1]; peptide + Mupirocin, E. coli SBECO2)
0.52: FIC ([1]; peptide + Tobramycin, S. haemolyticus SHA001)
0.53: FIC ([1]; peptide + Ciprofloxacin, S. aureus SA10) | FIC ([1]; peptide + Vancomycin, E. faecalis EFS001)
0.51: FIC ([1]; peptide + Gentamicin, S. epidermidis SE074) | FIC ([1]; peptide + Tobramycin, S. haemolyticus SHA005) | FIC ([1]; peptide + Vancomycin, E. faecalis EFS014)
0.16: FIC [1, 12]
0.25 µg/mL: Peptide MIC + Vancomycin ([1]; E. faecalis EFS006)
1 µg/mL: Vancomycin MIC + Peptide ([1]; E. faecalis EFS014) | Peptide MIC + Gentamicin ([1]; E. faecium EFM004) | Peptide MIC + Ciprofloxacin ([1]; S. aureus SA11) | Gentamicin MIC + Peptide ([1]; S. epidermidis SE074)
0.5 µg/mL: Vancomycin MIC + Peptide ([1]; E. faecalis EFS001) | Peptide MIC + Vancomycin ([1]; E. faecalis EFS007) | Vancomycin MIC + Peptide ([1]; E. faecium EFM004) | Peptide MIC + Tobramycin ([1]; P. aeruginosa PA032)
4 µg/mL: Peptide MIC + Mupirocin ([1]; E. coli ECO1) | Peptide MIC Alone ([1]; E. faecalis EFS001) | Vancomycin MIC + Peptide ([1]; E. faecalis EFS006) | Vancomycin MIC + Peptide ([1]; E. faecalis EFS010) | Peptide MIC Alone ([1]; E. faecalis EFS014) | Vancomycin MIC + Peptide ([1]; E. faecium EFM007) | Vancomycin MIC + Peptide ([1]; E. faecium EFM009) | Tobramycin MIC + Peptide ([1]; P. aeruginosa PA026) | Peptide MIC + Ciprofloxacin ([1]; S. aureus SA10) | Peptide MIC + Gentamicin ([1]; S. aureus SA014 MRSA) | Peptide MIC + Tobramycin [1, 16] | Tobramycin MIC + Peptide ([1]; S. haemolyticus SHA005) | Tobramycin MIC + Peptide ([1]; S. maltophilia SMA029)
0.28: FIC ([1]; peptide + Gentamicin, E. faecium EFM004) | FIC ([1]; peptide + Vancomycin, E. faecium EFM007)
0.31: FIC ([1]; peptide + Gentamicin, S. maltophilia SMA019) | FIC ([1]; peptide + Gentamicin, S. maltophilia SMA020)
0.125 µg/mL: Peptide MIC + Vancomycin ([1]; E. faecalis EFS001) | Peptide MIC + Tobramycin ([1]; P. aeruginosa PA026) | Tobramycin MIC + Peptide [1, 15] | Tobramycin MIC + Peptide [1, 16] | Peptide MIC + Tobramycin ([1]; S. haemolyticus SHA001) | Peptide MIC + Tobramycin ([1]; S. haemolyticus SHA005)
2 µg/mL: Peptide MIC + Mupirocin ([1]; E. coli SBECO2) | Vancomycin MIC + Peptide ([1]; E. faecalis EFS007) | Peptide MIC + Vancomycin ([1]; E. faecalis EFS010) | Peptide MIC + Vancomycin ([1]; E. faecalis EFS014) | Gentamicin MIC + Peptide ([1]; S. aureus SA014 MRSA) | Tobramycin MIC + Peptide ([1]; S. haemolyticus SHA001) | Gentamicin MIC + Peptide ([1]; S. maltophilia SMA019) | Gentamicin MIC + Peptide ([1]; S. maltophilia SMA020) | Tobramycin MIC + Peptide ([1]; S. maltophilia SMA030)
0.14: FIC ([1]; peptide + Mupirocin, E. coli ECO1)
0.56: FIC ([1]; peptide + Gentamicin, S. aureus SA014 MRSA)
64 µg/mL: Peptide MIC Alone ([1]; E. faecalis EFS012) | Gentamicin MIC + Peptide ([1]; E. faecium EFM004) | Peptide MIC Alone ([1]; E. faecium EFM007) | Peptide MIC Alone ([1]; E. faecium EFM009) | Peptide MIC + Tobramycin ([1]; S. maltophilia SMA030)
10 µg/mL: Mupirocin MIC + Peptide ([1]; E. coli ECO1)
>128 µg/mL: Peptide MIC Alone ([1]; 3. Ciprofloxacin, S. aureus SA11) | Peptide MIC Alone ([1]; 4. Gentamicin, S. maltophilia SMA019) | Peptide MIC Alone ([1]; 4. Gentamicin, S. maltophilia SMA020) | Peptide MIC Alone ([1]; P. aeruginosa PA026, Tobramycin section) | Peptide MIC Alone [1, 6] | Peptide MIC Alone [1, 7] | Peptide MIC Alone [1, 13]
16 µg/mL: Peptide MIC + Vancomycin ([1]; E. faecium EFM004) | Peptide MIC + Vancomycin ([1]; E. faecium EFM007) | Ciprofloxacin MIC + Peptide ([1]; S. aureus SA10) | Peptide MIC Alone ([1]; S. aureus SA014 (also SA014 MRSA), Tobramycin section) | Peptide MIC + Gentamicin ([1]; S. epidermidis SE074) | Peptide MIC Alone ([1]; S. haemolyticus SHA005, Tobramycin section) | Peptide MIC + Gentamicin ([1]; S. maltophilia SMA019) | Peptide MIC + Gentamicin ([1]; S. maltophilia SMA020)
32: Peptide MIC ([2]; S. aureus)
128 µg/mL: Peptide MIC Alone ([1]; 3. Ciprofloxacin, S. aureus SA10) | Peptide MIC Alone ([1]; E. coli SBECO2, Mupirocin section) | Peptide MIC Alone ([1]; E. faecalis EFS006) | Peptide MIC Alone ([1]; E. faecalis EFS007) | Peptide MIC Alone ([1]; E. faecalis EFS010)
0.27: FIC [1, 14] | FIC ([1]; peptide + Vancomycin, E. faecalis EFS010)
8 µg/mL: Peptide MIC Alone ([1]; 4. Gentamicin, S. aureus SA014 MRSA) | Peptide MIC + Vancomycin ([1]; E. faecalis EFS012) | Peptide MIC + Vancomycin ([1]; E. faecium EFM009) | Tobramycin MIC + Peptide ([1]; P. aeruginosa PA032) | Peptide MIC + Tobramycin [1, 15] | Peptide MIC Alone ([1]; S. aureus SA025 (also SA025 MRSA), Tobramycin section) | Peptide MIC Alone ([1]; S. haemolyticus SHA001, Tobramycin section)
0.50: FIC ([1]; peptide + Ciprofloxacin, S. aureus SA11) | FIC ([1]; peptide + Tobramycin, P. aeruginosa PA026) | FIC [1, 11] | FIC ([1]; peptide + Tobramycin, S. aureus SA014 (also SA014 MRSA)) | FIC ([1]; peptide + Tobramycin, S. aureus SA025 (also SA025 MRSA)) | FIC ([1]; peptide + Vancomycin, E. faecalis EFS006) | FIC ([1]; peptide + Vancomycin, E. faecalis EFS007) | FIC ([1]; peptide + Vancomycin, E. faecium EFM004)
0.25: FIC ([1]; peptide + Vancomycin, E. faecalis EFS012) | FIC ([1]; peptide + Vancomycin, E. faecium EFM009)
30 µg/mL: Mupirocin MIC + Peptide ([1]; E. coli SBECO2)
32 µg/mL: Peptide MIC Alone ([1]; 4. Gentamicin, E. faecium EFM004) | Peptide MIC Alone ([1]; 4. Gentamicin, S. epidermidis SE074) | Peptide MIC Alone ([1]; E. coli ECO1, Mupirocin section) | Vancomycin MIC + Peptide ([1]; E. faecalis EFS012) | Peptide MIC Alone ([1]; E. faecium EFM004) | Ciprofloxacin MIC + Peptide ([1]; S. aureus SA11) | Peptide MIC + Tobramycin ([1]; S. maltophilia SMA029)
